Test results from patent US20250188030A1, “Biphenyl and Phenylpyridine Compounds” (Pfizer Inc., priority 2023, published 2025).
Read-outs that look alike come from different tables or passages of the source.

What was measured:
[1] = tested on: H3K9AC (HT1080 cells); assay: H3K9AC Sandwich ELISA Assay in HT1080 cells (KAT2A primary cell-based screening assay); set-up: species or system Human
Method: Human fibrosarcoma cell line HT1080 was obtained from American Type Culture Collection (ATCC), Manassas, VA USA, Cat. HT-1080 (ATCC® CCL-121™). Cells were cultured in MEM (Thermo Fisher Scientific/Gibco Life Technologies Cat. #11-095-080) plus 10% (v/v) FBS (Thermo Fisher Scientific/Gibco Life Technologies Cat. #26140-079) and 1% Penicillin-Streptomycin (Thermo Fisher Scientific/Gibco Life Technologies Cat. #15070063) at 37° C. in 5% CO2.
HT1080 cells were trypsinized, cell viability count performed, and cells suspended in complete media at 100,000 cells/ml. Cells were seeded (100 μl/well) into Greiner Bio-One CELLSTAR 96-well polystyrene flat bottom cell culture microplate (Thermo Fisher Scientific Cat. #07-000-162) at a density of 10,000 cells/well. Cells were incubated for 16 hours at 37° C. at 5% CO2. Compound dilution plates were prepared in 96-well, clear U-bottom, polypropylene plates (Corning 3365) in 100% DMSO at 10 mM stock concentration in duplicate, using 10-point serial dilution (1:3). Compounds were diluted to 1:200 in growth medium and 25 μl from intermediate compound plates were added to each well of the cell plates using a Beckman FX liquid handling system such that the highest compound concentration tested was 10 μM final, with a 0.1% final DMSO concentration in the total volume of 125 μl. Plates were incubated for 24 hours at 37° C. and 5% CO2. Plates were centrifuged at 2500 rpm for 5 minutes and medium was removed. 100 μL 0.4N HCL (Thermo Fisher Scientific Cat #SA56-1) was added to each well and plates were shaken for 60 minutes at 4C to lyse cells. 38ul 0.4N Sodium phosphase dibasic pH12.5 (Thermo Fisher Scientific Cat #S375-212) containing 2 mM Sodium Butyrate (Millipore TR1008G) and 3 mM Phenylmethanesulfonyl-fluoride (Sigma 93482) was added to each well to neutralize lysates.
Cell lysate plates were mixed for 5 minutes at room temperature on shaker and immediately frozen at −80C overnight. Cell lysates were thawed and 50 μL/well was transferred to ELISA plates (Total Histone H3 mouse (Cell Signaling Technology Cat #14269) mAb-coated Corning 1×8 strip-well, white, 96-well plates (Corning 2485)). After 2 hours room temperature incubation, plates were washed six times with PBS/0.05% Tween Wash Buffer using a BioTek plate washer. 50 μL of Histone H3K9AC rabbit detection mAb (Cell Signaling Technology Cat #9649S) diluted 1:1000 in blocking buffer (Thermo Fisher Scientific Cat #37542) was added to each well and incubated for 2 hours at room temperature. After washing, 50 μL anti-rabbit IgG, HRP-Linked antibody (Cell Signaling Technology Cat #7074) diluted 1:1000 in blocking buffer was added to each well and incubated for 60 minutes at room temperature. Following incubation, plates were washed as described above. 50 μL of luminescent GLO substrate reagent (R&D System Cat #DY993) was added to each well and incubated for 10 minutes at room temperature. Plates were read on the PHERAstar plate reader using the 96-well with Luminescent reading mode. IC50 values were calculated using a four-parameter fit with GraphPad Prism version 9.5.1 or in-house modified IDBS ActivityBase data analyzing package.

[2] = target: KAT2A (Homo sapiens (Human), UniProt Q92830); assay: KAT2A acetyltransferase biochemical assay (RapidFire mass spectrometry, AcCoA to CoA)
Sequence of KAT2A (Q92830 whole entry): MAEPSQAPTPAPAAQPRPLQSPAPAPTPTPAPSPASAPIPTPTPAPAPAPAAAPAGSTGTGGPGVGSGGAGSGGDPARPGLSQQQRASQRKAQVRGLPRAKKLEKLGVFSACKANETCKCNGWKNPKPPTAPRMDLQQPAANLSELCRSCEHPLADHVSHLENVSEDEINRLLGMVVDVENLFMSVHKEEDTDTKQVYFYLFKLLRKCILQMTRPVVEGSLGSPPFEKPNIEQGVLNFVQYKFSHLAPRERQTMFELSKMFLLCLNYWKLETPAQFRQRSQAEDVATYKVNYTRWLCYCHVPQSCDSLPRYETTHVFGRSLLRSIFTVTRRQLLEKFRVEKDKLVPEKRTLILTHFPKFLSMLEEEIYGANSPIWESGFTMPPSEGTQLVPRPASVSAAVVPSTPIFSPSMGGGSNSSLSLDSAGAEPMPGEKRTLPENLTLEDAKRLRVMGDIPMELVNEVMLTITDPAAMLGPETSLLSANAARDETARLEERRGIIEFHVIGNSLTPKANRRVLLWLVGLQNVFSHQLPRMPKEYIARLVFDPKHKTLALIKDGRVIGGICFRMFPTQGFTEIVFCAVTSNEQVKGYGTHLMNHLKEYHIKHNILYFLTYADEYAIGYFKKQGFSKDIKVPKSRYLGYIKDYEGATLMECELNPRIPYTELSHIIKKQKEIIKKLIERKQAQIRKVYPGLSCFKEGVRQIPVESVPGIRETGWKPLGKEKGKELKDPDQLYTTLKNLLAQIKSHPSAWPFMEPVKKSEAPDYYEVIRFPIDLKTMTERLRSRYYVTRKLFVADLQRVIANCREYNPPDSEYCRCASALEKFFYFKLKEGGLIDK

[3] = read-out: KAT2A Ki at 1 μM AcCoA, 5 μM H3 1-21 peptide, 0.5 nM KAT2A, 90-minute reaction
[4] = Homo sapiens, HT-1080, H3K9AC sandwich ELISA
[5] = KAT2A Ki at 1 μM AcCoA, 5 μM H3 1-21 peptide, 0.5 nM KAT2A, 90-minute reaction

IC50 ([1]; H3K9AC sandwich ELISA) | Ki [2, 3] | IC50 [1, 4] | Ki [2, 5] | Structure (SMILES)
8.85 nM | 0.08 nM |  |  | O=C(O)c1nn(C2CC2)cc1-c1ccc(O[C@@H]2CC[C@@H](NC(=O)[C@@]3(F)CNC4(CCC4)C3)C2)c(-c2cccc(F)c2C2CCC2)c1 (single isomer, unassigned) [Example J11]
 | 24.4 nM | 41.4 nM |  | CN1CC(C)(C)C[C@H]1C(=O)N[C@@H]1CC[C@@H](Oc2cccc(C(=O)NS(=O)(=O)N(C)C)c2-c2cccc(F)c2C2CCC2)C1 (atropisomer, axis not shown) [Example I7, N-[(1R,3R)-3-({(1ψ)-2′-cyclobutyl-6-[(dimethylsulfamoyl)carbamoyl]-3′-fluoro[1,1′-biphenyl]-2-yl}oxy)cyclopentyl]-1,4,4-trimethyl-L-prolinamide]
 | 0.74 nM | 2.71 nM |  | CN1CC(C)(C)C[C@H]1C(=O)N[C@@H]1CC[C@@H](Oc2ccc(-c3nn(C)cc3CC(=O)O)cc2-c2cccc(F)c2C2CCC2)C1 [Example J8, {3-[2′-cyclobutyl-3′-fluoro-6-({(1R,3R)-3-[(1,4,4-trimethyl-L-prolyl)amino]cyclopentyl}oxy)[1,1′-biphenyl]-3-yl]-1-methyl-1H-pyrazol-4-yl}acetic acid]
489 nM | 75.7 nM |  |  | CN1CC(C)(C)C[C@H]1C(=O)N[C@H]1C[C@H](Oc2cccc(CC(=O)O)c2-c2cccc(F)c2C2CCC2)C[C@H]1O (atropisomer, axis not shown) [Example K5, [(1ψ)-2′-cyclobutyl-3′-fluoro-6-({(1S,3R,4S)-3-hydroxy-4-[(1,4,4-trimethyl-L-prolyl)amino]cyclopentyl}oxy)[1,1′-biphenyl]-2-yl]acetic acid]
9.7 nM |  |  |  | CC1(C)CNC[C@](F)(C(=O)N[C@@H]2CC[C@@H](Oc3cccc(CC(=O)O)c3-c3cccc(F)c3C3CCC3)C2)C1 (atropisomer, axis not shown) [Example H13, [(1 ψ)-2′-cyclobutyl-3′-fluoro-6-{[(1R,3R)-3-{[(3ξ)-3-fluoro-5,5-dimethylpiperidine-3-carbonyl]amino}cyclopentyl]oxy}[1,1′-biphenyl]-2-yl]acetic acid]
340 nM |  |  |  | CN1CC(C)(C)C[C@H]1C(=O)N[C@@H]1CC[C@@H](Oc2cccc(CC(=O)O)c2-c2ccccc2C2CCC2)C1 (atropisomer, axis not shown) [Example H7]
 | 1970 nM |  |  | CN1CC(C)(C)C[C@H]1C(=O)N[C@@H]1CC[C@@H](Oc2cccc(C(=O)NS(C)(=O)=O)c2-c2cccc(F)c2C2CCC2)C1 (atropisomer, axis not shown) [Example I2, N-[(1R,3R)-3-({(1ψ)-2′-cyclobutyl-3′-fluoro-6-[(methanesulfonyl)carbamoyl][1,1′-biphenyl]-2-yl}oxy)cyclopentyl]-1,4,4-trimethyl-L-prolinamide]
 |  |  | > 99.9 nM | Cc1cc(NS(C)(=O)=O)n(-c2ccc(O[C@@H]3CC[C@@H](NC(=O)[C@@]4(F)CNC5(CCC5)C4)C3)c(-c3cccc(F)c3C3CCC3)c2)n1 (single isomer, unassigned) [Example L2]

The remaining lines, values behind:

Structure (SMILES) | IC50 ([1]; H3K9AC sandwich ELISA) | Ki [2, 3] | IC50 [1, 4] | Ki [2, 5]
CC1(S(=O)(=O)NC(=O)Cc2ccc(O[C@@H]3CC[C@@H](NC(=O)[C@@]4(F)CNC5(CCCC5)C4)C3)c(-c3cccc(F)c3C3CCC3)c2)CC1 (single isomer, unassigned) [Example C69] |  | 0.04 nM | 0.6 nM | 
CCS(=O)(=O)NC(=O)Cc1ccc(O[C@@H]2CC[C@@H](NC(=O)[C@@]3(F)CNC4(CCCC4)C3)C2)c(-c2cccc(F)c2C2CCC2)c1 (single isomer, unassigned) [Example C70] | 73.5 nM | 0.04 nM |  | 
CC1(C)CNC[C@](F)(C(=O)N[C@@H]2CC[C@@H](Oc3ccc(CC(=O)NS(=O)(=O)C4(C)CC4)cc3-c3cccc(F)c3C3CCC3)C2)C1 (single isomer, unassigned) [Example C79] | 3.6 nM | 0.06 nM |  | 
CCS(=O)(=O)NC(=O)C(C)c1ccc(O[C@@H]2CC[C@@H](NC(=O)[C@@]3(F)CNC4(CCC4)C3)C2)c(-c2cccc(F)c2C2CCC2)c1 (single isomer, unassigned) [Example C90] |  | 0.05 nM | 3.3 nM | 
CCS(=O)(=O)NC(=O)Cc1ccc(O[C@@H]2CC[C@@H](NC(=O)[C@@]3(F)CNCC4(CCC4)C3)C2)c(-c2cccc(F)c2C2CCC2)c1 (single isomer, unassigned) [Example C59] | 440 nM | 12.1 nM |  | 
CC(C)S(=O)(=O)NC(=O)Cc1ccc(O[C@@H]2CC[C@@H](NC(=O)[C@]3(F)CNC4(CCC4)C3)C2)c(-c2cccc(F)c2C2CCC2)c1 (single isomer, unassigned) [Example C41] | 39.8 nM |  |  | 4.1 nM
CC(C)(C(=O)NS(=O)(=O)N1CC(F)(F)C1)c1ccc(O[C@@H]2CC[C@@H](NC(=O)[C@]3(F)CNC4(CCC4)C3)C2)c(-c2cccc(F)c2C2CCC2)c1 (single isomer, unassigned) [Example B10] |  | 0.15 nM | 15.7 nM | 
CC(C)(C(=O)NS(=O)(=O)N1CC(F)C1)c1ccc(O[C@@H]2CC[C@@H](NC(=O)[C@]3(F)CNC4(CCC4)C3)C2)c(-c2cccc(F)c2C2CCC2)c1 (single isomer, unassigned) [Example B6] |  | 746 nM | > 1000 nM | 
CC(C)c1ccccc1-c1cc(CC(=O)NS(=O)(=O)C(C)C)ccc1O[C@@H]1CC[C@@H](NC(=O)[C@@]2(F)CNCC(C)(C)C2)C1 (single isomer, unassigned) [Example C75] | 4.5 nM | 0.17 nM |  | 
O=C(O)c1ccc(O[C@@H]2CC[C@@H](NC(=O)[C@@]3(F)CNC4(CCCC4)C3)C2)c(-c2cccc(F)c2C2CCC2)c1 (single isomer, unassigned) [Example A35] | > 1000 nM | > 99.9 nM |  | 
CN1CC(C)(C)CC1C(=O)N[C@H]1C[C@H](COc2ccc(CC(=O)NS(C)(=O)=O)cc2-c2cccc(F)c2C2CCC2)C1 (stereo partly drawn) [Example G1, N-[(1r,3S)-3-{[(2′-cyclobutyl-3′-fluoro-5-{2-[(methanesulfonyl)amino]-2-oxoethyl}[1,1′-biphenyl]-2-yl)oxy]methyl}cyclobutyl]-1,4,4-trimethyl-L-prolinamide] |  | 2.55 nM | 55.2 nM | 
CC1(C)CNC[C@](F)(C(=O)N[C@@H]2CC[C@@H](Oc3ccc(CC(=O)NS(=O)(=O)C4(C)CC4)cc3-c3cccc(F)c3C3CCC3)C2)C1 (single isomer, unassigned) [Example C78] | > 1000 nM | 0.08 nM |  | 
CCC1(CC)C[C@@](F)(C(=O)N[C@@H]2CC[C@@H](Oc3ccc(C(C)(C)C(=O)O)cc3-c3cccc(F)c3C3CCC3)C2)CN1 (single isomer, unassigned) [Example A30] | > 1000 nM |  |  | 
CCC1(CC)C[C@@](F)(C(=O)N[C@@H]2CC[C@@H](Oc3ccc(C(C)(C)C(=O)O)cc3-c3cccc(F)c3C3CCC3)C2)CN1 (single isomer, unassigned) [Example A31] | 9.3 nM |  |  | 
CC(C)S(=O)(=O)NC(=O)C(C)(C)c1ccc(O[C@@H]2CC[C@@H](NC(=O)[C@]3(F)CNC4(CCC4)C3)C2)c(-c2ccccc2C2CCC2)c1 (single isomer, unassigned) [Example C49] |  | > 99.9 nM |  | 
CCc1c(F)cccc1-c1cc(C(C)(C)C(=O)NS(=O)(=O)C(C)C)ccc1O[C@@H]1CC[C@@H](NC(=O)[C@@]2(F)CNC3(CCCC3)C2)C1 (single isomer, unassigned) [Example C28] |  | 302 nM |  | 
CS(=O)(=O)NC(=O)Cc1ccc(O[C@@H]2CC[C@@H](NC(=O)[C@]3(F)CNC4(CCC4)C3)C2)c(-c2cccc(F)c2C2CCC2)c1 (single isomer, unassigned) [Example C39] |  |  |  | 20.4 nM
